Measured values published in patent publication US9388122B2, “Radioactive tyrosine derivative, method for producing same, labeling agent for positron imaging and medical agent for assessing grade of malignancy of tumor respectively composed of radioactive tyrosine derivative, and method for detecting tumor” (priority 2004, dated 2016).
Entries after “also recorded” stand apart in the source; their conditions may differ.

Legend:
[1] = tested on: Human cervical cancer HeLa cells (cell strain: 15S3D); assay: Measurement of organ distribution in cancer-bearing mice; settings: 1 hour after administration; for ratio of accumulation to the pancreas to accumulation to the tumor indicated by SUV (organ)/SUV (blood): D-form compared with L-form; for accumulation in the tumor, SUV (organ)/SUV (blood) / accumulation in the normal tissues, SUV (organ)/SUV (blood) / SUV (organ: tumor)/SUV (blood), D-form compared with L-form: HeLa-transplanted nude mice, tail vein; for accumulation in the tumor, SUV (organ)/SUV (blood): 10 MBq (11C) or 1 MBq (18F), gamma counter; for specificity of accumulation to tumor: from SUV (organ)/SUV (blood) of the organs
Method: Human cervical cancer HeLa cells (cell strain: 15S3D) were subcutaneously transplanted at 5×10^6 cells/mouse to the thighs of 7-week-old nude mice (BALB/cA Jcl-nu, Clea Japan, Inc). […] After 1 hour of the administration, the mice were decapitated to collect each organ (blood, heart, lung, liver, kidney, spleen, muscle, bone, small intestine, gastrointestinal tract, pancreas, brain, and tumor). The radioactivity of each organ was measured with an automatic gamma counter, and the weight of each organ was measured. SUV (standardized uptake value) that served as an index of the accumulating amounts of the administered compounds was determined. Furthermore, to correct the accumulating amounts, SUV (organ)/SUV (blood) was determined by dividing the SUV of each organ by the SUV of blood.

HeLa = assay: Planar measurement in cancer-bearing mice; settings: 2.5 MBq tail vein, 60 minutes measurement; for accumulation in the tumor site (planar imaging): PPIS-4800; for accumulation in the normal tissues (planar imaging): compared with tumor site
Method: Measurement was performed (1 minute×60 frames) for 60 minutes immediately after the compound administration by use of a planar imaging system (PPIS-4800 manufactured by Hamamatsu Photonics K. K.) and indicated by images each comprising 10 frames integrated.

[2] = tested on: HeLa-K (cell strain: 15S3D) and HeLa-B (JCRB9004); assay: Relationship between tumor proliferation rate and degree of accumulation of labeled compound for positron imaging; type: in vivo, nude mice (BALB/cA Jcl-nu)
Excerpt: HeLa-K (cell strain: 15S3D) and HeLa-B (Health Science Research Resources Bank: JCRB9004) were subcutaneously transplanted at 5×10^6 cells/mouse and 2×10^7 cells/mouse, respectively, to the thighs of female BALB/cA Jcl-nu nude mice (HeLa-K: 7-week-old mice, HeLa-B: 5-week-old mice). The HeLa-K- and HeLa-B-transplanted mice, when becoming 9 week old after 2 weeks and 4 weeks of the transplantation, respectively, were used in the experiment. To examine the relationship between the accumulation of each labeled compound in the cancer-bearing mice and the proliferation rate of the tumor tissue, tumor size was daily measured. Doubling time (DT) was calculated according to the calculation formula: DT=t×log2 (V1/V0) proposed by Schwartz, wherein t denotes the number of days required for the tumor volume to reach V1 (mm^3) from V0 (mm^3), and the volume (mm^3) was calculated according to ½×length (mm)×width^2 (mm^2) from the major axis of the tumor. FIG. 7 is a graph showing the relationship between the number of days elapsed after HeLa transplantation and tumor volumes. […] The doubling times of HeLa-K and HeLa-B calculated from FIG. 7 were 4.4 days and 11.0 days, respectively.
The HeLa-K- and HeLa-B-transplanted nude mice were administered through the tail veins with [^18F]FDG, [^11C]choline, [^18F]FLT, L- and D-[^11C]Met, and L- and D-[^11C]MT at 1 MBq ([^18F]FDG and [^18F]FLT) or 10 MBq ([^11C]choline, L- and D-[^11C]Met, and L- and D-[^11C]MT). […] The radioactivities of the blood and tumor were measured with an automatic gamma counter, their weights were measured, and SUV was determined.
HeLa-K- and HeLa-B-transplanted nude mice were administered through the tail veins with L- and D-[^11C]ET, L- and D-[^18F]FMT, L-and D-[^18F]FET, and L- and D-[^18F]FPT at 10 MBq (L- and D-[^11C]ET) or 1 MBq (the others). […] The radioactivities of the blood and tumor were measured with an automatic gamma counter, their weights were measured, and SUV was determined.

cancer cells = settings: cited from earlier work
tumor tissues = settings: in vivo; cited from earlier work
[3] = HeLa-K versus HeLa-B tumors, SUV (organ)/SUV (blood), 1 hour after administration

Row | Compound | ratio of accumulation to the pancreas to accumulation to the tumor indicated by SUV (organ)/SUV (blood) [1] | accumulation in the tumor, SUV (organ)/SUV (blood) [1] | accumulation in the normal tissues, SUV (organ)/SUV (blood) [1] | specificity of accumulation to tumor [1] | accumulation in the tumor site (planar imaging) (HeLa) | also measured
1 | C[11CH2]Oc1ccc(C[C@@H](N)C(=O)O)cc1 [D-[^11C]ET, O—[^11C]ethyl-D-tyrosine] | lower in the D-form than in the L-form | observed in the tumor | low in the normal tissues except for the pancreas | specific to the tumor |  | 
2 | N[C@H](Cc1ccc(OC[18F])cc1)C(=O)O [D-[^18F]FMT, O—[^18F]fluoromethyl-D-tyrosine] |  |  |  | particularly high specificity to the tumor | observed in the tumor site | tumor-specific accumulation, D-form compared with L-form (planar imaging) (HeLa): accumulate in a manner specific to the tumor as compared with the L-form; difference in the degree of accumulation depending on the difference in proliferation rate [2, 3]: remarkably large as compared with L-[^18F]FMT; SUV (organ: tumor)/SUV (blood), D-form compared with L-form [1]: higher value of SUV (organ: tumor)/SUV (blood) than the L-form
3 | [11CH3]SCC[C@@H](N)C(=O)O [D-[^11C]Met, reference compound] |  | observed in the tumor | also high in the normal tissues | low specificity to tumor | observed in the tumor site | accumulation in the normal tissues (planar imaging) (HeLa): significantly stronger in the normal tissues
4 | N[C@H](Cc1ccc(OCC[18F])cc1)C(=O)O [D-[^18F]FET, O—[^18F]fluoroethyl-D-tyrosine] | lower in the D-form than in the L-form | observed in the tumor | low in the normal tissues except for the pancreas | specific to the tumor; also recorded: particularly high specificity to the tumor |  | uptake to cancer cells (cancer cells): low uptake to cancer cells; accumulation in tumor tissues (tumor tissues): does not accumulate in tumor tissues; SUV (organ: tumor)/SUV (blood), D-form compared with L-form [1]: higher value of SUV (organ: tumor)/SUV (blood) than the L-form
5 | [^18F]-2-fluoro-2-deoxy-D-glucose [[^18F]FDG, reference compound] |  |  |  |  |  | difference in the degree of accumulation depending on the difference in proliferation rate ([2]; mouse, in vivo): not detected
6 | N[C@@H](Cc1ccc(OCCC[18F])cc1)C(=O)O [L-[^18F]FPT, O—[^18F]Fluoropropyl-L-tyrosine, reference compound] |  | observed in the tumor | low in the normal tissues except for the pancreas and bone | specific to the tumor |  | 
7 | N[C@@H](Cc1ccc(OC[18F])cc1)C(=O)O [L-[^18F]FMT, O—[^18F]fluoromethyl-L-tyrosine] |  |  |  |  | observed in the tumor site | 
8 | [11CH3]SCC[C@H](N)C(=O)O [L-[^11C]Met, L-[^11C]methionine, reference compound] |  | observed in the tumor | also high in the normal tissues | low specificity to tumor | observed in the tumor site | accumulation in the normal tissues (planar imaging) (HeLa): significantly stronger in the normal tissues; difference in the degree of accumulation depending on the difference in proliferation rate ([2]; mouse, in vivo): not detected
9 | N[C@H](Cc1ccc(OCCC[18F])cc1)C(=O)O [D-[^18F]FPT, O—[^18F]fluoropropyl-D-tyrosine] | lower in the D-form than in the L-form | observed in the tumor | low in the normal tissues except for the pancreas and bone | specific to the tumor |  | 
10 | [11CH3]Oc1ccc(C[C@H](N)C(=O)O)cc1 [L-[^11C]MT, O—[^11C]methyl-L-tyrosine, reference compound] |  | observed in the tumor | low in the normal tissues except for the pancreas | specific to the tumor | observed in the tumor site | 
11 | [11CH3]Oc1ccc(C[C@@H](N)C(=O)O)cc1 [D-[^11C]MT, O—[^11C]methyl-D-tyrosine] | lower in the D-form than in the L-form | observed in the tumor | low in the normal tissues except for the pancreas | specific to the tumor | observed in the tumor site | tumor-specific accumulation, D-form compared with L-form (planar imaging) (HeLa): accumulate in a manner specific to the tumor as compared with the L-form; accumulation in tumor, SUV (organ)/SUV (blood), HeLa-K versus HeLa-B ([2]; HeLa-K doubling time 4.4 days, HeLa-B 11.0 days, tail vein, 1 hour after administration): accumulated more in HeLa-K exhibiting faster proliferation; difference in the degree of accumulation depending on the difference in proliferation rate [2, 3]: remarkably large; SUV (organ: tumor)/SUV (blood), D-form compared with L-form [1]: higher value of SUV (organ: tumor)/SUV (blood) than the L-form
12 | C[11CH2]Oc1ccc(C[C@H](N)C(=O)O)cc1 [L-[^11C]ET, O—[^11C]Ethyl-L-tyrosine, reference compound] |  | observed in the tumor | low in the normal tissues except for the pancreas | specific to the tumor |  | 
13 | N[C@@H](Cc1ccc(OCC[18F])cc1)C(=O)O [L-[^18F]FET, O—[^18F]Fluoroethyl-L-tyrosine, reference compound] |  | observed in the tumor | low in the normal tissues except for the pancreas | specific to the tumor |  | 
